Target: T1, YEATS domain of YEATS2 (YEATS2 201-332) (Homo sapiens, UniProt Q9ULM3)
T1 sequence (Q9ULM3 201-332): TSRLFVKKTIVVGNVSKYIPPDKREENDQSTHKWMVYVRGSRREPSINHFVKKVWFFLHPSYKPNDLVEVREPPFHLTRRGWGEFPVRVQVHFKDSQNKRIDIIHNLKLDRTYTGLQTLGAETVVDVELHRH
Assay: ITC binding of histone peptides to the YEATS domain of YEATS2

Row | Compound | Kd [µM] | binding (in words) (ITC, 15°C, wild type YEATS2 201-332)
1 | C/C=C/C(=O)NCCCC[C@H](NC(=O)[C@@H](NC(=O)[C@H](CCCNC(=N)N)NC(=O)[C@H](C)N)[C@@H](C)O)C(=O)N[C@@H](CCC(N)=O)C(=O)N[C@H](C(=O)N[C@@H](C)C(=O)N[C@@H](CCCNC(=N)N)C(=O)N[C@@H](CCCCN)C(=O)N[C@@H](CO)C(=O)N[C@H](C(=O)NCC(=O)NCC(=O)N[C@@H](CCCCN)C(=O)N[C@@H](C)C(=O)O)[C@@H](C)O)[C@@H](C)O [H31-15K4cr] | 121 | –
2 | ARTKQT ARKST GGK(cr)APRKQLATKAA [H31-25K14cr] | – | No binding

Reference: publication PMC4856769 (Cell Research, 2016)
